Test results taken from PubChem BioAssay AID1963978 (Molecular Pharmacology Branch, DTP, NCI, 2024).

Test system: 616215-338-R-J1-PDC spheroids with HUVEC/MSC, viability
Assay: Anticancer human tumor 616215-338-R-J1-PDC patient-derived colon adenocarcinoma cell line growth inhibition [PI3K]
Details: for IC50: curve of first compound; for viability, T/C: stronger effect = lower value
Method in brief: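 We assembled tumor spheroids that included a stromal compartment of HUVEC and MSCs, then exposed them to targeted agents alone and together with PI3K pathway inhibitors. Concentration series descended by half-log from clinically achievable Cmax levels. Viability served as the endpoint.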

[1] = second compound 0.0316 µM, first compound 0.0316 µM
[2] = second compound 0.0316 µM, first compound 0.1 µM
[3] = second compound 0.1 µM, first compound 0.0316 µM
[4] = second compound 0.1 µM, first compound 0.1 µM
[5] = second compound 0.316 µM, first compound 0.0316 µM
[6] = second compound 0.316 µM, first compound 0.1 µM
[7] = second compound 1 µM, first compound 0.0316 µM
[8] = second compound 1 µM, first compound 0.1 µM
[9] = second compound 3.16 µM, first compound 0.0316 µM
[10] = second compound 3.16 µM, first compound 0.1 µM
[11] = second compound 10 µM, first compound 0.0316 µM
[12] = second compound 10 µM, first compound 0.1 µM
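Further: spheroids exposed to agents for seven days before the viability read.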

For CC(=O)c1c(C)c2cnc(Nc3ccc(N4CCNCC4)cn3)nc2n(C2CCCC2)c1=O + Cc1nc(NC(=O)N2CCCC2C(N)=O)sc1-c1ccnc(C(C)(C)C(F)(F)F)c1, which IC50 (second compound 0.0316 µM) is on record?
Its IC50 is greater than 0.1 µM.

What about the IC50 (second compound 0.1 µM) of the same compound?
Its IC50 is greater than 0.1 µM.

And the IC50 (second compound 0.316 µM)?
The IC50 was greater than 0.1 µM.

What about the IC50 (second compound 1 µM) of the same compound?
Its IC50 is greater than 0.1 µM.

And the IC50 (second compound 3.16 µM)?
Its IC50 is greater than 0.1 µM.

What about the IC50 (second compound 10 µM) of the same compound?
The IC50 was greater than 0.1 µM.

What about the viability, T/C (second compound 0.0316 µM, first compound 0.000316 µM) of the same compound?
The viability, T/C was 97.4%.

What about the viability, T/C (second compound 0.0316 µM, first compound 0.001 µM) of the same compound?
Its viability, T/C is 96.8%.

What about the viability, T/C (second compound 0.0316 µM, first compound 0.00316 µM) of the same compound?
The viability, T/C was 102%.

And the viability, T/C (second compound 0.0316 µM, first compound 0.01 µM)?
The viability, T/C was 110%.

What about the viability, T/C [1] of the same compound?
The viability, T/C was 98%.

What about the viability, T/C [2] of the same compound?
Its viability, T/C is 113%.

What about the viability, T/C (second compound 0.1 µM, first compound 0.000316 µM) of the same compound?
Its viability, T/C is 102%.

What about the viability, T/C (second compound 0.1 µM, first compound 0.001 µM) of the same compound?
The viability, T/C was 95.7%.

What about the viability, T/C (second compound 0.1 µM, first compound 0.00316 µM) of the same compound?
Its viability, T/C is 105%.

What about the viability, T/C (second compound 0.1 µM, first compound 0.01 µM) of the same compound?
Its viability, T/C is 87.9%.

What about the viability, T/C [3] of the same compound?
Its viability, T/C is 104%.

And the viability, T/C [4]?
Its viability, T/C is 111%.

What about the viability, T/C (second compound 0.316 µM, first compound 0.000316 µM) of the same compound?
Its viability, T/C is 109%.

What about the viability, T/C (second compound 0.316 µM, first compound 0.001 µM) of the same compound?
Its viability, T/C is 97.3%.

And the viability, T/C (second compound 0.316 µM, first compound 0.00316 µM)?
Its viability, T/C is 88.1%.

And the viability, T/C (second compound 0.316 µM, first compound 0.01 µM)?
Its viability, T/C is 99.9%.

What about the viability, T/C [5] of the same compound?
The viability, T/C was 104%.

And the viability, T/C [6]?
The viability, T/C was 108%.

And the viability, T/C (second compound 1 µM, first compound 0.000316 µM)?
Its viability, T/C is 111%.

What about the viability, T/C (second compound 1 µM, first compound 0.001 µM) of the same compound?
Its viability, T/C is 108%.

And the viability, T/C (second compound 1 µM, first compound 0.00316 µM)?
Its viability, T/C is 97.2%.

And the viability, T/C (second compound 1 µM, first compound 0.01 µM)?
The viability, T/C was 100%.

And the viability, T/C [7]?
Its viability, T/C is 103%.

What about the viability, T/C [8] of the same compound?
The viability, T/C was 91.7%.

And the viability, T/C (second compound 3.16 µM, first compound 0.000316 µM)?
The viability, T/C was 91.8%.

And the viability, T/C (second compound 3.16 µM, first compound 0.001 µM)?
Its viability, T/C is 95.6%.

And the viability, T/C (second compound 3.16 µM, first compound 0.00316 µM)?
Its viability, T/C is 90.5%.

What about the viability, T/C (second compound 3.16 µM, first compound 0.01 µM) of the same compound?
The viability, T/C was 98.4%.

And the viability, T/C [9]?
The viability, T/C was 105%.

What about the viability, T/C [10] of the same compound?
Its viability, T/C is 101%.

And the viability, T/C (second compound 10 µM, first compound 0.000316 µM)?
The viability, T/C was 97.5%.

What about the viability, T/C (second compound 10 µM, first compound 0.001 µM) of the same compound?
Its viability, T/C is 93%.

What about the viability, T/C (second compound 10 µM, first compound 0.00316 µM) of the same compound?
The viability, T/C was 90.5%.

And the viability, T/C (second compound 10 µM, first compound 0.01 µM)?
Its viability, T/C is 93%.

And the viability, T/C [11]?
The viability, T/C was 91%.

What about the viability, T/C [12] of the same compound?
Its viability, T/C is 97%.

CC(C)NCC(C(=O)N1CCN(c2ncnc3c2C(C)CC3O)CC1)c1ccc(Cl)cc1 (centres undefined) + Cc1nc(NC(=O)N2CCCC2C(N)=O)sc1-c1ccnc(C(C)(C)C(F)(F)F)c1 was tested. Which IC50 (second compound 0.0316 µM) did it give?
Its IC50 is 8.82 µM.

What about the IC50 (second compound 0.1 µM) of the same compound?
Its IC50 is 8.31 µM.

And the IC50 (second compound 0.316 µM)?
Its IC50 is 7.19 µM.

What about the IC50 (second compound 1 µM) of the same compound?
The IC50 was 7.82 µM.

What about the IC50 (second compound 3.16 µM) of the same compound?
The IC50 was 7.42 µM.

And the IC50 (second compound 10 µM)?
The IC50 was 4.35 µM.

And the viability, T/C [1]?
Its viability, T/C is 97.2%.

And the viability, T/C [2]?
The viability, T/C was 91.6%.

And the viability, T/C (second compound 0.0316 µM, first compound 0.316 µM)?
The viability, T/C was 91.8%.

What about the viability, T/C (second compound 0.0316 µM, first compound 1 µM) of the same compound?
Its viability, T/C is 98.3%.

And the viability, T/C (second compound 0.0316 µM, first compound 3.16 µM)?
The viability, T/C was 91.8%.

What about the viability, T/C (second compound 0.0316 µM, first compound 10 µM) of the same compound?
Its viability, T/C is 44.9%.

What about the viability, T/C [3] of the same compound?
The viability, T/C was 89.5%.

And the viability, T/C [4]?
The viability, T/C was 87.4%.

What about the viability, T/C (second compound 0.1 µM, first compound 0.316 µM) of the same compound?
The viability, T/C was 92.8%.

What about the viability, T/C (second compound 0.1 µM, first compound 1 µM) of the same compound?
Its viability, T/C is 105%.

And the viability, T/C (second compound 0.1 µM, first compound 3.16 µM)?
Its viability, T/C is 90.1%.

What about the viability, T/C (second compound 0.1 µM, first compound 10 µM) of the same compound?
Its viability, T/C is 42%.

What about the viability, T/C [5] of the same compound?
Its viability, T/C is 103%.

What about the viability, T/C [6] of the same compound?
Its viability, T/C is 92.9%.

And the viability, T/C (second compound 0.316 µM, first compound 0.316 µM)?
The viability, T/C was 98.7%.

What about the viability, T/C (second compound 0.316 µM, first compound 1 µM) of the same compound?
Its viability, T/C is 104%.

And the viability, T/C (second compound 0.316 µM, first compound 3.16 µM)?
Its viability, T/C is 70.8%.

What about the viability, T/C (second compound 0.316 µM, first compound 10 µM) of the same compound?
The viability, T/C was 41.6%.

What about the viability, T/C [7] of the same compound?
Its viability, T/C is 98.9%.

What about the viability, T/C [8] of the same compound?
The viability, T/C was 97.6%.

And the viability, T/C (second compound 1 µM, first compound 0.316 µM)?
The viability, T/C was 95.6%.

And the viability, T/C (second compound 1 µM, first compound 1 µM)?
Its viability, T/C is 101%.

What about the viability, T/C (second compound 1 µM, first compound 3.16 µM) of the same compound?
The viability, T/C was 84.9%.

And the viability, T/C (second compound 1 µM, first compound 10 µM)?
Its viability, T/C is 39.8%.

And the viability, T/C [9]?
The viability, T/C was 111%.

What about the viability, T/C [10] of the same compound?
The viability, T/C was 101%.

And the viability, T/C (second compound 3.16 µM, first compound 0.316 µM)?
Its viability, T/C is 102%.

And the viability, T/C (second compound 3.16 µM, first compound 1 µM)?
The viability, T/C was 90.4%.

And the viability, T/C (second compound 3.16 µM, first compound 3.16 µM)?
The viability, T/C was 71.4%.

And the viability, T/C (second compound 3.16 µM, first compound 10 µM)?
Its viability, T/C is 42.2%.

What about the viability, T/C [11] of the same compound?
The viability, T/C was 96%.

What about the viability, T/C [12] of the same compound?
Its viability, T/C is 95.3%.

What about the viability, T/C (second compound 10 µM, first compound 0.316 µM) of the same compound?
Its viability, T/C is 91.6%.

And the viability, T/C (second compound 10 µM, first compound 1 µM)?
Its viability, T/C is 79.2%.

What about the viability, T/C (second compound 10 µM, first compound 3.16 µM) of the same compound?
Its viability, T/C is 57.8%.

And the viability, T/C (second compound 10 µM, first compound 10 µM)?
The viability, T/C was 30.3%.
